Entries after “also recorded” stand apart in the source; their conditions may differ.
How the values were obtained:
mTBI rats [1] = test: Electrocorticographic recording of paroxysmal slow wave events (PSWEs) in repeated mild TBI rat model; assay type: in vivo, Sprague-Dawley rats
[2] = tested on: blood-brain barrier (BBB) of mTBI rats; test: Contrast-enhanced MRI of blood-brain barrier permeability in repeated mild TBI rat model; assay type: in vivo, Sprague-Dawley rats
mTBI rats [3] = test: Neurological scoring / neurological complications after repeated mild TBI; assay type: in vivo, Sprague-Dawley rats; details: daily injection of THC 0.002 mg/kg i.p.; 60% without THC
[4] = tested on: cortical microvasculature (BBB) of mTBI rats; test: Intravital microscopy (open window, fluorescent angiography) of cortical microvascular permeability in repeated mild TBI rat model; assay type: in vivo, Sprague-Dawley rats; details: repeated THC 0.002 mg/kg i.p.; 6-8 days after first injury; vs vehicle-injected controls
[5] = intravenous, humans; cited from earlier work

Compound	number of PSWEs (mTBI rats [1]; repeated THC 0.002 mg/kg i.p., ECoG 3-4 weeks following injury)	number of PSWEs (mTBI rats [1]; single THC dose (THC1) 0.002 mg/kg i.p. after first impact, vs controls, FIG. 3B)	% of brain volume with pathological (damaged) BBB ([2]; repeated (daily, after each impact) THC 0.002 mg/kg i.p., CE-MRI after rmTBI, vs TBI vehicle)	% of brain volume with pathological voxels compared to non-injured controls ([2]; repeated THC 0.002 mg/kg i.p., CE-MRI, FIG. 1D)	effect on trauma-induced BBB breakdown ([2]; repeated THC, data from both CE-MRI and intravital microscopy)	risk for neurological complications (mTBI rats [3])	cortical microvascular (BBB) permeability [4]	estimated lethal dose [5]
CCCCCc1cc(O)c2c(c1)OC(C)(C)[C@@H]1CCC(C)=C[C@@H]21 [THC, Δ9-tetrahydrocannabinol]	mild reduction; also recorded: lower occurrence	significant increase	Moderate decrease	not different compared to controls	mild protective and therapeutic effect	35%	lower; also recorded: reduced	
CCCCCc1cc(O)c2c(c1)OC(C)(C)[C@@H]1CCC(C)=C[C@@H]21 [dronabinol, (−)-trans-[…]9-tetrahydrocannabinol]								30 mg/kg

Reference: patent publication US20230302025A1, “METHODS FOR MAINTAINING MICROVASCULAR INTEGRITY” (SCISPARC LTD., priority 2020, published 2023)
